{"source": "patent US20200405868A1", "about": "“GEL-FORMING POLYPEPTIDES” (priority 2018, published 2020)", "key": {"[1]": {"target": "kappa opioid receptor (OPRK1) (Homo sapiens, UniProt P41145)", "sequence (P41145 whole entry)": "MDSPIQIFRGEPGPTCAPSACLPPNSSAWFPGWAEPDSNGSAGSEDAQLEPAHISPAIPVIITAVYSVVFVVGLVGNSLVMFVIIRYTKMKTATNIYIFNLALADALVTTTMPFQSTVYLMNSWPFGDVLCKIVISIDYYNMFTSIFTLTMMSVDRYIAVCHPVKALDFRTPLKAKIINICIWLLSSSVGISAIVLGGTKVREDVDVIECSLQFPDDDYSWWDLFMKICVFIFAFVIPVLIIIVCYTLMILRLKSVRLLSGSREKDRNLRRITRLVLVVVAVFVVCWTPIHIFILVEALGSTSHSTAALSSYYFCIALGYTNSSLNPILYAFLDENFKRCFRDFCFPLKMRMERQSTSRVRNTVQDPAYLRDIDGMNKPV", "test": "OPRK1 cAMP assay (Discoverx), agonistic", "type": "cell-based", "method": "(§1) The agonistic activities toward MC1R, MC4R, CRHR2, PTHR1, and OPRK1 were assyed with an MC1R cAMP assay, an MC4R cAMP assay, a CRHR2 cAMP assay, a PTHR1 cAMP assay and an OPRK1 cAMP assay from Discoverx Inc. (Fremont, Calif.), respectively. The antagonistic activities toward bradykinin receptor 2 (BDKRB2) and GnRH receptor (GnRHR or LHRHR) were assayed with a BDKRB2 arrestin assay and a GnRHR calcium flux assay from Discoverx, respectively.\n(§2) For the analysis of Gs-coupled cAMP production, cAMP Hunter cell lines were expanded from freezer stocks, and cells were seeded in a total volume of 20 μL into white walled, 384-well microplates and incubated at 37 C for the appropriate time prior to testing. The cAMP modulation was determined using the DiscoverX HitHunter cAMP XS+ assay. For agonistic activity determination, cells were incubated with sample to induce response. Media was aspirated from cells and replaced with 15 μL 2:1 HBSS/10 mM Hepes: cAMP XS+ Ab reagent. […] The compound activity was analyzed using a CBIS data analysis suite (ChemInnovation, CA). For Gs-coupled agonistic assays, percentage activity is calculated using the following formula: % Activity=100%×(mean RLU of test sample−mean RLU of vehicle control)/(mean RLU of MAX control−mean RLU of vehicle control)."}, "[2]": {"test": "Compound gel-forming ability in water (visual inspection, tube tapping assay, tilted tube assay)", "type": "physicochemical", "quoted_text": "Determination of Compound Gel-forming Ability in Water: To determine the solubility of polypeptides at room temperature, 1, 2, 3, 4, 5, 20, or 100 mg of a selected peptide is weighed and deposited into a clear plastic or glass vial and an aliquot of de-ionized water was then added to the vial. The procedure takes place in a room which is maintained at approximately 22-25° C. […] Insoluble peptides sample retained the particles or paste-like characteristics after 20 min of reaction. In addition to visual inspection, we performed a tube tapping assay and a tilted tube assay to differentiate the gelling status of peptide solutions.\nTo determine the solubility of polypeptides at room temperature, 1, 2, 3, 4, 5, 20, or 100 mg of a selected peptide is weighed and deposited into a clear plastic vial and an aliquot of de-ionized water was then added to the vial. The procedure takes place in a room which is maintained at approximately 22-25° C. Polypeptide sample which is considered soluble dissolves instantly in water and stays as a clear solution without obvious macroscopic change in viscosity at 20 min after mixing with water. […] If macroscopic particles of peptides remain in the solution at 20 min after mixing with water, the peptide is considered insoluble or precipitated at the given concentration. In this case, the quality of peptides is further judged by two other criteria: (1) mobility following a tapping of the tube (tube tapping assay) and (2) mobility flowing tilting the tube by 900 (tilted tube assay). In the first assay, the tube is tapped with the finger for 10 times, and the number of times that the body of the solution changes position is recorded. An aqueous solution such as water will have a score of 9 or 10 in this assay; meaning that the body of the liquid moves every time when one taps the tube. […] Those with moderate viscosity form liquid gel that changes the conformation slowly when the container tube is tapped with a finger or tilted. […] If macroscopic change in the position of the body of gel was observed 5-9 time out of 10 separate tapping tests, the gel is considered a liquid gel. The high viscosity of a liquid gel is further confirmed using the tilted tube assay. […] If the liquid or gel body takes more than 15 seconds to flow to the bottom of the tilted tube, the resulting aqueous mass is considered a liquid gel.\nTo allow systematic analysis of the gel-forming ability, the assay was first conducted at a peptide concentration of 11% w/w in aqueous solution. The peptides analyzed included functional regulators of cell surface receptors, enzymes, complement factors, antimicrobial peptides, immunomodulators, therapeutic peptides, cell-penetrating peptide, antigens, matrikines, and analogs of CGRP, adrenomedullin and adenomedullin 2 (or intermedin)."}, "[3]": {"target": "melanocortin receptor 4 (MC4R) (Homo sapiens, UniProt P32245)", "sequence (P32245 whole entry)": "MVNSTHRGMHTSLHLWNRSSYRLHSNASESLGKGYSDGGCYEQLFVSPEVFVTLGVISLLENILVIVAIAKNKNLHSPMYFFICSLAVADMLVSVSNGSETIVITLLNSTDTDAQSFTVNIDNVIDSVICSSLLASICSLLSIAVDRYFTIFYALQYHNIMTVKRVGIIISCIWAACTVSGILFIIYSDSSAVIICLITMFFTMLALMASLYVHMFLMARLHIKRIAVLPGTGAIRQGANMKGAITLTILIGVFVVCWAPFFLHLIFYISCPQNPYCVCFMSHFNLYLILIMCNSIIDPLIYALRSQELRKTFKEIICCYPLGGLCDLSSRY", "test": "MC4R cAMP assay (Discoverx), agonistic", "type": "cell-based", "method": "as §1, §2"}}, "note": "Where a SMILES comes first, the peptide text is derived from it. Bridges are numbered along the chain shown (N, C = ends). [ ]: non-standard residue; d: D form. The star is where a group is joined. Palmitoyl = CCCCCCCCCCCCCCCC(=O)*; AEEA = NCCOCCOCC(=O)O;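 for gel formation in aqueous solution, 11%: peptides mixed with de-ionized water at about 22-25 °C, judged after 20 min by eye plus tube tapping (10 taps, moves counted) and 90° tilt mobility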;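 for gel formation in aqueous solution, 6%: peptides mixed with de-ionized water at about 22-25 °C, judged after 20 min by eye plus tube tapping (10 taps, moves counted) and 90° tilt mobility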;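 for propensity to form gels, chimeric or mutated polypeptides, 11%: peptides mixed with de-ionized water at about 22-25 °C, judged after 20 min by eye plus tube tapping (10 taps, moves counted) and 90° tilt mobility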;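 for propensity to form gels, chimeric or mutated polypeptides, 6%: peptides mixed with de-ionized water at about 22-25 °C, judged after 20 min by eye plus tube tapping (10 taps, moves counted) and 90° tilt mobility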", "data": [{"smiles": "CCCCCCCCCCCCCCCC(=O)N[C@@H](CO)C(=O)N[C@@H](CO)C(=O)N1CCC[C@H]1C(=O)N[C@@H](Cc1c[nH]cn1)C(=O)N[C@@H](CO)C(=O)N[C@@H](Cc1ccc(O)cc1)C(=O)NCCOCCOCC(=O)N[C@H](Cc1ccccc1)C(=O)N[C@H](Cc1ccccc1)C(=O)N[C@@H](Cc1c[nH]c2ccccc12)C(=O)N[C@H](CCCNC(=N)N)C(=O)O", "note": "[SEQ ID NO:214, Pal-SSPHSY-miniPEG-(D-Phe)-(D-Phe)-Trp-(D-Arg)] (Palmitoyl-SSPHSY[AEEA][dF][dF]W[dR]-OH; N-terminus and C-terminus assumed)", "values": [{"measurement": "Max Activity % of positive control", "setting": "[1]", "result": "62 % of positive control"}, {"measurement": "gel formation at 3% w/w", "setting": "[2]; 3% w/w in water", "result": "liquid gel"}, {"measurement": "gel formation at 6% w/w", "setting": "[2]; 6% w/w in water", "result": "semisolid gel"}, {"measurement": "gel formation at 11% w/w", "setting": "[2]; 11% w/w in water", "result": "semisolid gel"}, {"measurement": "gel formation in aqueous solution, 6%", "setting": "[2]; Table 3, 6% w/w", "result": "SS (SS for semisolid gel)"}, {"measurement": "gel formation in aqueous solution, 11%", "setting": "[2]; Table 3, 11% w/w", "result": "SS (SS for semisolid gel)"}, {"measurement": "propensity to form gels, chimeric or mutated polypeptides, 6%", "setting": "[2]; Table 5, 6% w/w", "result": "SS (An ability to form semisolid gel is represented by an SS)"}, {"measurement": "propensity to form gels, chimeric or mutated polypeptides, 11%", "setting": "[2]; Table 5, 11% w/w", "result": "SS (An ability to form semisolid gel is represented by an SS)"}]}, {"smiles": "CCCCCCCCCCCCCCCC(=O)N[C@@H](Cc1c[nH]cn1)C(=O)N[C@@H](CO)C(=O)N[C@@H](Cc1ccc(O)cc1)C(=O)N[C@@H](CCCNC(=N)N)C(=O)N[C@H]1CSSC[C@@H](C(N)=O)NC(=O)[C@H](Cc2c[nH]c3ccccc23)NC(=O)[C@H](CCCNC(=N)N)NC(=O)[C@@H](Cc2ccccc2)NC(=O)[C@H](Cc2c[nH]cn2)NC(=O)[C@@H](C)NC1=O", "note": "[SEQ ID NO:228, Pal-HSYRC-(D-Ala)-H-(D-Phe)-RWC-NH2] (Palmitoyl-HSYRC[dA]H[dF]RWC-NH2; disulfide 5-11 (inferred))", "values": [{"measurement": "Max Activity % of positive control", "setting": "[3]", "result": "115 % of positive control"}]}]}
